Source: PubChem BioAssay (NCI)
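Test compounds were applied to cells in 96-well plates for 48 hours at 5 doses. TGI denotes the concentration required for complete inhibition of growth.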

Legend:
Experiment in all cases: NCI-60 cell line screen, 48 h
[1] = tested on: OVCAR-4 ovarian
[2] = tested on: SK-OV-3 ovarian
[3] = tested on: SNB-75 CNS
[4] = tested on: BT-549 breast
[5] = tested on: RPMI-8226 leukemia
[6] = tested on: MCF7 breast
[7] = tested on: HT29 colon
[8] = tested on: SF-539 CNS
[9] = tested on: OVCAR-5 ovarian
[10] = tested on: ACHN renal

| Compound | TGI [1] [µM] | TGI [2] [µM] | TGI [3] [µM] | TGI [4] [µM] | TGI [5] [µM] | TGI [6] [µM] | TGI [7] [µM] | TGI [8] [µM] | TGI [9] [µM] | TGI [10] [µM] |
| --- | --- | --- | --- | --- | --- | --- | --- | --- | --- | --- |
| C1CN(C23OC4(N5CCOCC5)C5C6CC(C7C6C4C72)C53)CCO1 (stereo not given) | > 100 | > 100 | > 100 | > 100 | > 100 | > 100 | > 100 | > 100 | > 100 | > 31.6 |
| CCOC(=O)C1C2C1C1C(C(=O)OCC)C21 (stereo not given) | > 100 | > 100 | > 100 | > 100 | > 100 | > 100 | > 100 | > 100 | > 100 | > 100 |
| O=C(O)c1cc2c(cc1CC(Cc1ccccc1)C(=O)O)CCC2 (stereo not given) | > 100 | > 100 | > 100 | > 100 | > 100 | > 100 | > 100 | > 100 | > 100 | > 100 |
| COc1ccc(C2=C(N)c3ccccc3C2=O)cc1 | > 100 | > 100 | 78.7 | > 100 | > 100 | > 100 | > 100 | > 100 | > 100 | > 100 |
| CCCS(=O)OC1C(C2COC(C)(C)O2)OC2OC(C)(C)OC21 (stereo not given) | 34.7 | > 86.8 | > 48.8 | 24.5 | 12.8 | 27.3 | 17.9 | 38.4 | 26.1 | 26.9 |
| Fc1ccccc1C1SCC2=Nc3ccccc3CN21 (stereo not given) | > 100 | > 100 | > 100 | > 100 | > 100 | > 100 | > 100 | > 100 | > 100 | > 100 |
| CN1C(C(=O)Nc2ccccn2)=C(O)c2ccccc2S1(=O)=O | > 100 | > 100 | > 100 | > 100 | > 100 | > 100 | > 100 | > 100 | > 100 | > 100 |
| O=c1c2cc(Cl)ccc2n2nnc3ccc(NCCNCCO)c1c32 | 2.52 | 6.26 | 0.286 | 5.22 | 10.2 | 9.46 | 2.74 | 3.32 | 3.42 | 2.43 |
